Assay results reported in patent US6783949B1, “Processes for determining whether a test substance contains lipases or lipase inhibitors” (Aventis Pharma Deutschland GmbH, priority 1999, dated 2004).

Target: T1, HSL (Rattus norvegicus, UniProt P15304)
T1 construct: The partially purified HSL can be stored at −70° C. for 4 to 6 weeks; from tissue; host or cells: rat epididymal fat cells (male Wistar rats)
T1 sequence (P15304 1-768 isoform P15304-2): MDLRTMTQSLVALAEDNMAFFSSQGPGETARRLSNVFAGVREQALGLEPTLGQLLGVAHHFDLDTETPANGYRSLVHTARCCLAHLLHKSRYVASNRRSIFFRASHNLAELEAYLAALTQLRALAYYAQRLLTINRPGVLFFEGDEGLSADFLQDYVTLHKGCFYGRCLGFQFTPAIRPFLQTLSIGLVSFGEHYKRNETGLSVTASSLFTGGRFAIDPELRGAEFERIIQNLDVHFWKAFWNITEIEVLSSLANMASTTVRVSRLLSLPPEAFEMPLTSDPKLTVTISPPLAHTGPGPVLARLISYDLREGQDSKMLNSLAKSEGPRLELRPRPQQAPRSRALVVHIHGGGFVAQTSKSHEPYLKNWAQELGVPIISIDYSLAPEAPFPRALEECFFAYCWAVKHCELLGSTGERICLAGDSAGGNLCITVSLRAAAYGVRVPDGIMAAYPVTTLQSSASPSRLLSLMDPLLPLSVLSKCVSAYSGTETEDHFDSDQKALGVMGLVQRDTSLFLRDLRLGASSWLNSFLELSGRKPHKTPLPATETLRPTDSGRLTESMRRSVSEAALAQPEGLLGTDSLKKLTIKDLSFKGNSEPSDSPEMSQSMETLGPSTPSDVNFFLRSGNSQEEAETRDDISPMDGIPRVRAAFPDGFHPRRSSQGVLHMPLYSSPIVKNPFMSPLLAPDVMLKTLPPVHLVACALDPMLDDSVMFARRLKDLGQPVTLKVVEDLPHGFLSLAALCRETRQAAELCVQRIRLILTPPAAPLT
Assay: Indirect NAG assay (extinction increase at 481 nm)
Format: biochemical
Settings: 60 min
Experimental: A typical reaction is carried out at 30° C. for 60 min, for example in 1.5 ml Eppendorf vessels or 96-hole plates. […] 180 μl of the substrate solution (20 μg/ml of phosphatidylcholine, 10 μg/ml of phosphatidylinositol, 50 μg/ml of NAG in assay buffer) are added. After a preincubation for 15 min at 30° C., 20 μl of HSL in assay buffer are pipetted in and the extinction is immediately measured (see above) at 481 nm in a cuvette photometer (0.5 ml cuvette) or microtiter plate reader. After a certain incubation time, which is variable and depends on the chosen enzyme concentration and can be between 2 and 240 minutes, in this case incubation at 30° C. for 60 min, the extinction is measured again. The increase in the extinction in the yellow region, in this case at 481 nm, is a measure of the enzyme activity.
Isolated rat fat cells are obtained from epididymal fatty tissue from untreated male rats (Wistar, 220-250 g) by collagenase treatment according to published processes. The fat cells from 10 rats are washed three times by flotation with 50 ml each of homogenization buffer ([…], pH 7.4, 0.25 M sucrose, 1 mM ethylenediamine-N,N,N′,N′-tetraacetic acid (EDTA), 1 mM dithiothreitol (DTT), 10 μg/ml of leupeptin, 10 μg/ml of antipain, 20 μg/ml of pepstatin) and finally taken up in 10 ml of homogenization buffer. The fat cells are homogenized in a Teflon-in-glass homogenizer (Braun-Melsungen) by 10 strokes at 1500 rpm and 15° C. The homogenizate is centrifuged (Sorvall SM24 tubes, 5000 rpm, 10 min, 4° C.). The […] between the overlying fatty layer and the pellet is removed and the centrifugation is repeated. The […] resulting from this is centrifuged again (Sorvall SM24 tubes, 20,000 rpm, 45 min, 4° C.). […] After incubation for 60 min at 4° C. (shake at intervals of 15 min), the batch is centrifuged (Sorvall SM24 tubes, 3000 rpm, 10 min, 4° C.). The supernatant is brought to pH 5.2 by addition of glacial acetic acid and incubated at 4° C. for 30 min. […] The suspension is dialyzed overnight at 4° C. against 25 mM TRIS/HCl, pH 7.4, 50% glycerol, 1 mM DTT, and 10 μg/ml of leupeptin, pepstatin, and antipain and then applied to a hydroxylapatite column (0.1 g per 1 ml of suspension, equilibrated with 10 mM potassium phosphate, pH 7.0, 30% glycerol, 1 mM DTT). The column is washed with four volumes of equilibration buffer at a flow rate of 20 to 30 ml/h. The HSL is eluted with a volume of equilibration buffer which contains 0.5 M potassium phosphate, then dialyzed (see above) and concentrated 5 to 10 times by ultrafiltration (Amicon Diaflo PM 10 filter) at 4° C. The partially purified HSL can be stored at −70° C. for 4 to 6 weeks.
6 mg of phosphatidylcholine and 6 mg of phosphatidylinositol are dissolved in 1 ml of chloroform each. 10 mg of NAG are dissolved in 1 ml of chloroform. […] The chloroform (225 μl total volume) is completely removed by overblowing with a stream of N2. The dried substrate can be stored at 4° C. for up to three days. For the preparation of the phospholipid vesicles/micelles having intercalated NAG (on the test day), the dried substrate is taken up in 20 ml of assay buffer (25 mM TRIS/HCl, pH 7.4; 150 mM NaCl) and two ultrasonic treatments with an ultrasonic probe (Branson Sonifier type 11, standard microtip): 1st treatment setting 2, 2×1 min, in between in each case 1 min on ice; 2nd treatment setting 4, 2×1 min, in between in each case 1 min on ice. […] Before use as a substrate (within the next 2 h), the solution is additionally incubated on ice for 15 min.
The assay is carried out at 30° C. for 60 min in 1.5 ml Eppendorf vessels or 96-hole plates.

## O=C(CCCCCCCCCCCNc1ccc([N+](=O)[O-])c2nonc12)OCC(O)CO (centres unmarked) [Compound (3)]
NAG 0.075 mg/ml, HSL 40 μg
  Increase in the absorption at 481 nm: 15502 ± 1077 arb. units
NAG 0.1 mg/ml, HSL 5 μg
  Increase in the absorption at 481 nm: 1521 ± 119 arb. units
NAG 0.1 mg/ml, HSL 20 μg
  Increase in the absorption at 481 nm: 6124 ± 577 arb. units
NAG 0.1 mg/ml, HSL 40 μg
  Increase in the absorption at 481 nm: 19223 ± 1599 arb. units
NAG 0.15 mg/ml, HSL 5 μg
  Increase in the absorption at 481 nm: 1983 ± 155 arb. units
NAG 0.15 mg/ml, HSL 20 μg
  Increase in the absorption at 481 nm: 7544 ± 603 arb. units
NAG 0.15 mg/ml, HSL 40 μg
  Increase in the absorption at 481 nm: 26730 ± 2069 arb. units
NAG 0.2 mg/ml, HSL 5 μg
  Increase in the absorption at 481 nm: 2242 ± 186 arb. units
NAG 0.2 mg/ml, HSL 20 μg
  Increase in the absorption at 481 nm: 8898 ± 961 arb. units
NAG 0.2 mg/ml, HSL 40 μg
  Increase in the absorption at 481 nm: 31641 ± 2304 arb. units
NAG 0.3 mg/ml, HSL 5 μg
  Increase in the absorption at 481 nm: 2489 ± 213 arb. units
NAG 0.3 mg/ml, HSL 20 μg
  Increase in the absorption at 481 nm: 9734 ± 825 arb. units
NAG 0.3 mg/ml, HSL 40 μg
  Increase in the absorption at 481 nm: 35953 ± 3355 arb. units
PI/PC 0 mg/ml, PI:PC 1:1, HSL 20 μg, NAG 0.05 mg/ml
  Increase in the absorption at 481 nm: 134 ± 23 arb. units
PI/PC 0 mg/ml, PI:PC 1:3, HSL 20 μg, NAG 0.05 mg/ml
  Increase in the absorption at 481 nm: 89 ± 12 arb. units
PI/PC 0 mg/ml, PI:PC 3:1, HSL 20 μg, NAG 0.05 mg/ml
  Increase in the absorption at 481 nm: 173 ± 42 arb. units
PI/PC 0.009 mg/ml, PI:PC 1:1, HSL 20 μg, NAG 0.05 mg/ml
  Increase in the absorption at 481 nm: 548 ± 76 arb. units
PI/PC 0.009 mg/ml, PI:PC 1:3, HSL 20 μg, NAG 0.05 mg/ml
  Increase in the absorption at 481 nm: 289 ± 77 arb. units
PI/PC 0.009 mg/ml, PI:PC 3:1, HSL 20 μg, NAG 0.05 mg/ml
  Increase in the absorption at 481 nm: 1437 ± 132 arb. units
PI/PC 0.018 mg/ml, PI:PC 1:1, HSL 20 μg, NAG 0.05 mg/ml
  Increase in the absorption at 481 nm: 1430 ± 188 arb. units
PI/PC 0.018 mg/ml, PI:PC 1:3, HSL 20 μg, NAG 0.05 mg/ml
  Increase in the absorption at 481 nm: 692 ± 94 arb. units
PI/PC 0.018 mg/ml, PI:PC 3:1, HSL 20 μg, NAG 0.05 mg/ml
  Increase in the absorption at 481 nm: 2610 ± 306 arb. units
PI/PC 0.075 mg/ml, PI:PC 1:1, HSL 20 μg, NAG 0.05 mg/ml
  Increase in the absorption at 481 nm: 1138 ± 125 arb. units
PI/PC 0.075 mg/ml, PI:PC 1:3, HSL 20 μg, NAG 0.05 mg/ml
  Increase in the absorption at 481 nm: 1679 ± 143 arb. units
PI/PC 0.075 mg/ml, PI:PC 3:1, HSL 20 μg, NAG 0.05 mg/ml
  Increase in the absorption at 481 nm: 3365 ± 402 arb. units
PI/PC 0.15 mg/ml, PI:PC 1:1, HSL 20 μg, NAG 0.05 mg/ml
  Increase in the absorption at 481 nm: 745 ± 97 arb. units
PI/PC 0.15 mg/ml, PI:PC 1:3, HSL 20 μg, NAG 0.05 mg/ml
  Increase in the absorption at 481 nm: 912 ± 103 arb. units
PI/PC 0.15 mg/ml, PI:PC 3:1, HSL 20 μg, NAG 0.05 mg/ml
  Increase in the absorption at 481 nm: 2108 ± 256 arb. units
PI/PC 0.3 mg/ml, PI:PC 1:1, HSL 20 μg, NAG 0.05 mg/ml
  Increase in the absorption at 481 nm: 335 ± 47 arb. units
PI/PC 0.3 mg/ml, PI:PC 1:3, HSL 20 μg, NAG 0.05 mg/ml
  Increase in the absorption at 481 nm: 427 ± 56 arb. units
PI/PC 0.3 mg/ml, PI:PC 3:1, HSL 20 μg, NAG 0.05 mg/ml
  Increase in the absorption at 481 nm: 913 ± 102 arb. units
Standard conditions, 20 μg of partially purified HSL
  Extinction change at 480 nm: 4000 arb. units
